Earlier results as cited in patent US8999405B1 (priority 2013, dated 2015).

Tests used:
[1] = alkaline nitrogenous base of nicotine

SMILES	pKa [1]	Solubility Alcohol (alcohol)	Solubility Other (other solvent, named in the cell)	Solubility Water (water)
CN1CCC[C@H]1c1cccnc1 [nicotine I, 3-(1-methyl-2-pyrrolidinyl) pyridine]	~8.5			
CN1CCC[C@H]1c1cccnc1.O=C(O)c1ccccc1C(=O)O [Phthalic]		soluble	insoluble: ether	soluble
